Laboratory results taken from patent US20170003292A1, “PAXIP1 AS A BIOMARKER FOR WEE1 INHIBITOR THERAPY” (H. LEE MOFFITT CANCER CENTER AND RESEARCH INSTITUT INC., priority 2014, published 2017).

Experiments:
Format in all cases: cell-based
lung cancer cell lines = assay: small-molecule inhibitor screen, apoptosis in lung cancer cell lines; details: AZD1775 in combination with cisplatin; multiple lung cancer cell lines
Source text: Since posttranslational phosphorylations are used by the DDR to coordinate cellular response to damage, 18 kinases found in this tBRCT PPIN were examined using a small-molecule inhibitor screen.

WEE1 = assay: p-CDC2 (p-CDK1) blots as marker for WEE1 inhibition in lung cancer cell lines; details: 15 lung cancer cell lines; AZD1775 as single agent or in combination with cisplatin; in lines with detectable (or elevated) PAXIP1 and WEE1
Source text: FIG. 2 is a series of blots showing PAXIP1, WEE1, and p-CDC2 (a.k.a. p-CDK1) levels in lung cancer cell lines treated with AZD1775 and Cisplatin. D: DMSO; M: AZD1775 only; C: Cisplatin only; M+C: AZD1775 and Cisplatin combination. AZD1775 is an ATP mimetic that targets the kinase activity of WEE1 and is currently being evaluated in clinical trials for several tumor types. Phosphorylation of CDC2 (a.k.a. CDK1) by WEE1 can be used as a marker for WEE1 inhibition.

H322 cells [1] = assay: mitotic index at the G2/M checkpoint in H322 cells overexpressing full length PAXIP1; details: H322 cells with overexpression of full length PAXIP1, after AZD1775 treatment
H322 cells [2] = assay: caspase-3 mediated apoptosis in H322 cells overexpressing PAXIP1; details: PAXIP1 overexpression, treated over 72 hours, compared to cells with low levels of PAXIP1
[3] = test system: lung cancer cell lines H322, H1648, H1395, H157; assay: cell viability by CellTiterGlo with synergy scores (Bliss model of independence); details: cells that express both PAXIP1 and WEE1; 72 h treatment; combination with cisplatin
Description: Lung adenocarcinoma cell lines 1-H322 (FIGS. 5A, 5B), H1648 (FIGS. 5E, 5F) and H1395 (FIGS. 5G, 5H) and a squamous lung cancer cell line H157 (FIG. 5C, 5D) were treated with AZD1775 and cisplatin either alone or in combination for 1 h and p-CDK1, PAXIP1 and WEE1 levels were measured (FIGS. 5A, 5C, 5E, […]). Cell lines were treated with AZD1775 and cisplatin for 72 h, cell viability was measured by CellTiterGlo and synergy scores were calculated (FIGS. 5B, 5D, 5F, 5H). Depicted in FIGS. 5B, 5D, 5F, and 5H are the three-dimensional dose-response surface curves with various combinations of drug concentrations (left) and the deviation from expected additive values determined by Bliss model of independence (right).

[4] = test system: WEE1 and PAXIP1 positive patient-derived xenografts (PDX); assay: 3-D clonogenic assay of patient-derived xenograft (PDX) lung tumors, Chou-Talalay combination index; details: combination with cisplatin
Source text: Two tumors that were selected from a TMA of 68 lung tumors for 3-D clonogenic assays to test synergy of the combination of AZD1775 and cisplatin in these tumors. FIGS. 7A and 7C show percentage of tumor inhibition with different concentrations of AZD1775 and cisplatin. FIGS. 7B and 7D show combination index (CI) values obtained by applying the chou-[…] analysis to the percent inhibition values.

## C=CCn1c(=O)c2cnc(Nc3ccc(N4CCN(C)CC4)cc3)nc2n1-c1cccc(C(C)(C)O)n1 [AZD1775, 2-allyl-1-(6-(2-hydroxypropan-2-yl)pyridin-2-yl)-6-((4-(4-methylpiperazin-1-yl)phenyl)amino)-1H-pyrazolo[3,4-d]pyrimidin-3(2H)-one]
Lung cancer cell lines
  apoptosis: significant apoptosis
WEE1
  CDC2 phosphorylation: repression of CDC2 phosphorylation
H322 cells [1]
  mitotic index at the G2/M checkpoint: increased mitotic index
H322 cells [2]
  caspase-3 mediated apoptosis: sustained increase in apoptosis
H322 cells [2]; listed as AZD 1775
  caspase-3 mediated apoptosis: sustained increase in caspase-3 mediated apoptosis
[3]
  synergy of AZD1775 and cisplatin (cell viability): exhibit synergy
[4]
  synergy of AZD1775 and cisplatin (tumor inhibition, combination index): exhibit synergy
